ChEMBL document CHEMBL3421627, “Synthesis and biological evaluation of novel pyrazoline derivatives as potent anti-inflammatory agents” (Bioorg Med Chem Lett, 2015)
Active and inactive are the calls of the source. No cut-off for these calls is given here.

Columns and labels:
RAW264.7 [1] = test: Anti-inflammatory activity in mouse RAW264.7 cells assessed as inhibition of LPS-induced nitric oxide production at 10 uM pre-incubated for 2 hrs before LPS stimulation for 18 hrs by Griess reagent based colorimetric method; format: functional
[2] = target: T1, Nitric oxide synthase, inducible (Mus musculus, UniProt P29477); test: Inhibition of iNOS in LPS-stimulated mouse RAW264.7 cells using L-Arginine substrate incubated for 2 hrs by fluorescence spectrometry; format: cell-based
T1 sequence (P29477 whole entry): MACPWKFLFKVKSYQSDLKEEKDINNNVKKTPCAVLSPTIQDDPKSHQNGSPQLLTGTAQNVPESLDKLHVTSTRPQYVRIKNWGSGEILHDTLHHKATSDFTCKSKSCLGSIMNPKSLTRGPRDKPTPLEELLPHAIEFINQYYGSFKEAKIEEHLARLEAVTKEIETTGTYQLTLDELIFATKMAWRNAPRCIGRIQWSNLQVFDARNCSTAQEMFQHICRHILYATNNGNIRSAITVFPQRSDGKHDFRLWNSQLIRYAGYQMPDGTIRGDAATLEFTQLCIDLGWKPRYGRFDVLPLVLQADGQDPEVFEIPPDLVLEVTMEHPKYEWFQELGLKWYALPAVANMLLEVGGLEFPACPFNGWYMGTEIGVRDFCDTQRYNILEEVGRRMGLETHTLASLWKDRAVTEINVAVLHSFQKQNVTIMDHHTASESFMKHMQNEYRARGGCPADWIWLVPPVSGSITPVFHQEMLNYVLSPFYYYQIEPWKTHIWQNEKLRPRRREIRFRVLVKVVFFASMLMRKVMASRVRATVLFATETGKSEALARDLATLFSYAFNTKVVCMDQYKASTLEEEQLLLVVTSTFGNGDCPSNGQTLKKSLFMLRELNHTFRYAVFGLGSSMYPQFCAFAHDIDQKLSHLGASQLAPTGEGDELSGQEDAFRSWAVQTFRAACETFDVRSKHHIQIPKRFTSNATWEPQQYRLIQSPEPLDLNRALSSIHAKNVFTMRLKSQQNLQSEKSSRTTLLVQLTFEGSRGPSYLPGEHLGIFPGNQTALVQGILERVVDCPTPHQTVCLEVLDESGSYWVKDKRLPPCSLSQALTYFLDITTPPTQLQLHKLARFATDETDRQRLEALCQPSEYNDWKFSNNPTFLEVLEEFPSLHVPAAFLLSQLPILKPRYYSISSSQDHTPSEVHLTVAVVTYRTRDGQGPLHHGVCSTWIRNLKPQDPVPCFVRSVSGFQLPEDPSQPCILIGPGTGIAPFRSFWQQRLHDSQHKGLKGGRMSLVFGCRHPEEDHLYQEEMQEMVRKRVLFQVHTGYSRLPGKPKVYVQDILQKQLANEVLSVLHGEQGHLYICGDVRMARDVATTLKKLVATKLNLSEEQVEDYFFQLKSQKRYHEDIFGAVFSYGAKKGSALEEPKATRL

RAW264.7 [3] = test: Cytotoxicity against mouse RAW264.7 cells assessed as reduction in cell viability after 24 hrs in presence of LPS by MTT assay; format: cell-based; details: RAW264.7, 24 h
RAW264.7 [4] = test: Cytotoxicity against mouse RAW264.7 cells assessed as reduction in cell viability after 24 hrs in absence of LPS by MTT assay; format: cell-based; details: RAW264.7, 24 h
Mus musculus [5] = test: Anti-inflammatory activity in ICR mouse model of carrageenan-induced edema assessed as inhibition of paw thickness at 10 mg/kg, ip; format: functional; details: route intraperitoneal
Mus musculus [6] = test: Anti-inflammatory activity in ICR mouse model of carrageenan-induced edema assessed as inhibition of paw thickness at 25 mg/kg, ip; format: functional, organism-based; parameters: dose 25 mg/kg
Mus musculus [7] = test: Anti-inflammatory activity in ICR mouse model of carrageenan-induced edema assessed as inhibition of paw thickness at 50 mg/kg, ip; format: functional; details: route intraperitoneal
Mus musculus [8] = test: Anti-inflammatory activity in ICR mouse model of adjuvant-induced arthritis assessed as reduction in arthritis severity scores at 25 and 50 mg/kg, po dosed once daily from day 17 after vaccination; format: functional, organism-based; parameters: dose 50 mg/kg
Mus musculus [9] = test: Anti-inflammatory activity in ICR mouse model of adjuvant-induced arthritis assessed as reduction in histopathological changes at 50 mg/kg, po dosed once daily from day 17 after vaccination by H and E staining method; format: functional, organism-based; parameters: dose 50 mg/kg

| Compound | inhibition at 10 µM (RAW264.7 [1]) [%] | also measured |
| --- | --- | --- |
| COc1ccc(C2=NN(C(=O)c3cc(OC)c(OC)c(OC)c3)C(c3cc(OC)c(OC)c(OC)c3)C2)c2c1C=CC(C)(C)O2 (configuration not stated) | 57.2 |  |
| COc1ccc(C2=NN(C(=O)c3ccc(Cl)cc3)C(c3cc(OC)c(OC)c(OC)c3)C2)c2c1C=CC(C)(C)O2 (configuration not stated) | 34.7 |  |
| COc1ccc2c(c1)c(CC(=O)O)c(C)n2C(=O)c1ccc(Cl)cc1 [INDOMETHACIN] | 60.6 | IC50 [2]: 4.5 µM; IC50 (RAW264.7 [3]): 9.2 µM; IC50 (RAW264.7 [4]): 10.7 µM; inhibition in vivo at 10 mg/kg (Mus musculus [5]): 32% |
| COc1ccc(C2=NN(S(=O)(=O)c3cc(C)cc(C)c3)C(c3cc(OC)c(OC)c(OC)c3)C2)c2c1C=CC(C)(C)O2 (configuration not stated) | 26.9 |  |
| COc1ccc(C2=NN(C(=O)c3ccc(C(F)(F)F)cc3)C(c3cc(OC)c(OC)c(OC)c3)C2)c2c1C=CC(C)(C)O2 (configuration not stated) | 23.1 |  |
| COc1ccc(C2=NN(c3ccc(F)cc3)C(c3cc(OC)c(OC)c(OC)c3)C2)c2c1C=CC(C)(C)O2 (configuration not stated) | 30.8 |  |
| COc1ccc(C2=NN(C(=O)C(C)C)C(c3cc(OC)c(OC)c(OC)c3)C2)c2c1C=CC(C)(C)O2 (configuration not stated) | 54.2 |  |
| CCC(=O)N1N=C(c2ccc(OC)c3c2OC(C)(C)C=C3)CC1c1cc(OC)c(OC)c(OC)c1 (configuration not stated) | 65.9 |  |
| COc1ccc(C2=NN(S(=O)(=O)c3ccc([N+](=O)[O-])cc3)C(c3cc(OC)c(OC)c(OC)c3)C2)c2c1C=CC(C)(C)O2 (configuration not stated) | 41 |  |
| COc1ccc(C2=NN(C(=O)c3ccccc3F)C(c3cc(OC)c(OC)c(OC)c3)C2)c2c1C=CC(C)(C)O2 (configuration not stated) | 27.8 |  |
| COc1ccc(C2=NN(S(=O)(=O)C3CC3)C(c3cc(OC)c(OC)c(OC)c3)C2)c2c1C=CC(C)(C)O2 (configuration not stated) | 31.9 |  |
| COc1ccc(C2=NN(S(=O)(=O)c3ccc(F)cc3)C(c3cc(OC)c(OC)c(OC)c3)C2)c2c1C=CC(C)(C)O2 (configuration not stated) | 23.2 |  |
| COc1ccc(C2=NNC(c3cc(OC)c(OC)c(OC)c3)C2)c2c1C=CC(C)(C)O2 (configuration not stated) | 49.2 |  |
| COc1ccc(C2=NN(c3ccc(C(F)(F)F)cc3)C(c3cc(OC)c(OC)c(OC)c3)C2)c2c1C=CC(C)(C)O2 (configuration not stated) | 14.4 |  |
| COc1ccc(C2=NN(c3ccc(S(N)(=O)=O)cc3)C(c3cc(OC)c(OC)c(OC)c3)C2)c2c1C=CC(C)(C)O2 (configuration not stated) | 30.5 |  |
| COc1ccc(C2=NN(C(=O)c3ccc(F)cc3)C(c3cc(OC)c(OC)c(OC)c3)C2)c2c1C=CC(C)(C)O2 (configuration not stated) | 17.5 |  |
| COc1ccc(C(=O)N2N=C(c3ccc(OC)c4c3OC(C)(C)C=C4)CC2c2cc(OC)c(OC)c(OC)c2)cc1 (configuration not stated) | 78 | IC50 [2]: 24.8 µM; IC50 (RAW264.7 [3]): > 100 µM; IC50 (RAW264.7 [4]): > 100 µM; inhibition (Mus musculus [6]): Active; inhibition in vivo at 50 mg/kg (Mus musculus [7]): 54.2%; inhibition (Mus musculus [8]): Dose-dependent effect; inhibition (Mus musculus [9]): Active |
| COc1ccc(C2=NN(S(=O)(=O)c3ccc(C)cc3)C(c3cc(OC)c(OC)c(OC)c3)C2)c2c1C=CC(C)(C)O2 (configuration not stated) | 35.9 |  |
| COc1ccc(C2=NN(C(=O)CCCl)C(c3cc(OC)c(OC)c(OC)c3)C2)c2c1C=CC(C)(C)O2 (configuration not stated) | 62.1 |  |
| COc1ccc(C2=NN(C(=O)c3cccc(F)c3)C(c3cc(OC)c(OC)c(OC)c3)C2)c2c1C=CC(C)(C)O2 (configuration not stated) | 35.1 |  |
| CCS(=O)(=O)N1N=C(c2ccc(OC)c3c2OC(C)(C)C=C3)CC1c1cc(OC)c(OC)c(OC)c1 (configuration not stated) | 42.5 |  |
| COc1ccc(C2=NN(C(C)=O)C(c3cc(OC)c(OC)c(OC)c3)C2)c2c1C=CC(C)(C)O2 (configuration not stated) | 89.8 | IC50 [2]: 7.3 µM; IC50 (RAW264.7 [3]): > 100 µM; IC50 (RAW264.7 [4]): > 100 µM |
| COc1ccc(C2=NN(C(=O)CCl)C(c3cc(OC)c(OC)c(OC)c3)C2)c2c1C=CC(C)(C)O2 (configuration not stated) | 96.7 | IC50 [2]: 2.5 µM; IC50 (RAW264.7 [3]): 19.3 µM; IC50 (RAW264.7 [4]): 30.8 µM |
| COc1ccc(C2=NN(C(=O)c3cccc(C(F)(F)F)c3)C(c3cc(OC)c(OC)c(OC)c3)C2)c2c1C=CC(C)(C)O2 (configuration not stated) | 22.4 |  |
| CCCS(=O)(=O)N1N=C(c2ccc(OC)c3c2OC(C)(C)C=C3)CC1c1cc(OC)c(OC)c(OC)c1 (configuration not stated) | 40.8 |  |
| COc1ccc(C2=NN(C(=O)c3cccc(Cl)c3)C(c3cc(OC)c(OC)c(OC)c3)C2)c2c1C=CC(C)(C)O2 (configuration not stated) | 29.1 |  |
| COc1ccc(C2=NN(c3ccc(C#N)cc3)C(c3cc(OC)c(OC)c(OC)c3)C2)c2c1C=CC(C)(C)O2 (configuration not stated) | 40.8 |  |
| COc1ccc(C2=NN(c3ccc(C(=O)O)cc3)C(c3cc(OC)c(OC)c(OC)c3)C2)c2c1C=CC(C)(C)O2 (configuration not stated) | 19.4 |  |
| COc1ccc(C2=NN(c3ccc([N+](=O)[O-])cc3)C(c3cc(OC)c(OC)c(OC)c3)C2)c2c1C=CC(C)(C)O2 (configuration not stated) | 15.7 |  |
| COc1ccc(C2=NN(C(=O)c3ccccc3C(F)(F)F)C(c3cc(OC)c(OC)c(OC)c3)C2)c2c1C=CC(C)(C)O2 (configuration not stated) | 18.9 |  |
